For the test, the system named is Mycobacterium avium. Description: Growth index for Mycobacterium avium sub species paratuberculosis was measured relative to mycobactin J. It is filed as functional.

On to `CCCCCCCCCCCCC/C=C/C(=O)N(O)CCCC[C@H](NC(=O)[C@@H]1CCC(c2ccccc2O)=N1)C(=O)OC(C(C)C)C(C)C(=O)N[C@H]1CCCCN(O)C1=O` (stereo partly specified), for which the “Growth Index” value is reported as 1.
Consider `CCCCC/C=C/C(=O)N(O)CCCCCNC(=O)CC(O)(CC(=O)NCCCCCN(O)C(=O)/C=C/CCCCC)C(=O)O`, for which the “Growth Index” value was 0.96.
`CCCCC/C=C/C(=O)N(O)CCCCCCNC(=O)CC1(O)CC(=O)N(CCCCCCN(O)C(=O)/C=C/CCCCC)C1=O` (stereo unspecified): the “Growth Index” value is 1.01.
Under `CCCCC/C=C/C(=O)N(O)CCCCCNC(=O)CC1(O)CC(=O)N(CCCCCN(O)C(=O)/C=C/CCCCC)C1=O` (stereo unspecified) stands 1.17; under `CCCCC/C=C/C(=O)N(O)CCCCCCNC(=O)CC(O)(CC(=O)NCCCCCCN(O)C(=O)/C=C/CCCCC)C(=O)O`, 0.95.
Under `CC(=O)N(O)CCCCCNC(=O)CCC(=O)N(O)CCCCCNC(=O)CCC(=O)N(O)CCCCCN` [DEFEROXAMINE] stands 1.09.

For the origin of these results see ChEMBL document CHEMBL1138766, “Synthesis and biological evaluation of new acinetoferrin homologues for use as iron transport probes in mycobacteria” (2004).
